# Key:
# [1] = target: Glucocorticoid receptor (Homo sapiens) (UniProt P04150); assay: Binding affinity to human GR assessed as inhibition of enzyme substrate complex formation
# [2] = Antioxidant activity assessed as DPPH radical scavenging activity at 50 to 250 microg/ml incubated for 20 mins relative to control; type: functional; details: dose 50-250 µg/ml
# [3] = Antioxidant activity assessed as ABTS radical scavenging activity at 50 to 250 microg/ml incubated for 7 mins relative to control; type: functional; details: dose 50-250 µg/ml
# Trypanosoma brucei = assay: Antiprotozoal activity against Trypanosoma brucei; type: functional; details: read-out: ED50 (the source's name)
# Trypanosoma cruzi = assay: Antiprotozoal activity against Trypanosoma cruzi; type: functional; details: read-out: ED50 (the source's name)
# Leishmania donovani = assay: Antiprotozoal activity against Leishmania donovani; type: functional; details: read-out: ED50 (the source's name)
# Plasmodium falciparum [4] = assay: Antimalarial activity against chloroquine resistant Plasmodium falciparum K1 in human erythrocytes; type: functional, organism-based; details: K1, Erythrocyte
# CHO = assay: Cytotoxicity against CHO cells measured after 48 hrs by MTT assay; type: toxicity, cell-based, Cricetulus griseus; details: chinese hamster
# NB-4 = assay: Antiproliferative activity against human NB-4 cells; type: functional, cell-based
# HepG2 = assay: Antiproliferative activity against human HepG2 cells assessed as reduction in cell viability measured after 48 hrs by trypan blue staining method; type: functional, cell-based; details: HepG2, 48 h
# SW480 = assay: Antiproliferative activity against human SW480 cells assessed as reduction in cell viability measured after 48 hrs by trypan blue staining method; type: functional, cell-based; details: SW480, 48 h
# Plasmodium falciparum [5] = assay: Antimalarial activity against chloroquine resistant Plasmodium falciparum K14 in human blood assessed as reduction in parasitemia measured after 42 hrs; type: functional, organism-based
# MCF7 = assay: Cytotoxicity against human MCF7 cells assessed as reduction in cell viability by MTT assay; type: functional, cell-based
# MDA-MB-231 = assay: Cytotoxicity against human MDA-MB-231 cells assessed as reduction in cell viability by MTT assay; type: functional, cell-based
# [6] = Antioxidant activity assessed as DPPH radical scavenging activity relative to control; type: functional; design: concentration or dose not given beside the values
# [7] = Cytotoxicity against ewing sarcoma cells (unknown origin); type: functional, cell-based; details: Ewing sarcoma cell
# [8] = Cytotoxicity against neuroblastoma cells (unknown origin); type: functional, cell-based; details: Neuroblastoma cell
# [9] = Cytotoxicity against osteosarcoma cells (unknown origin); type: functional, cell-based; details: Osteosarcoma cell
# [10] = Cytotoxicity against rhabdomyosarcoma cells (unknown origin); type: functional, cell-based; details: Rhabdomyosarcoma cell
# [11] = Cytotoxicity against normal foreskin fibroblast cells (unknown origin); type: toxicity, cell-based
# [12] = Cytotoxicity against normal lung fibroblast cells (unknown origin); type: toxicity, cell-based
# [13] = Cytotoxicity against normal primary bone marrow fibroblast cells (unknown origin); type: toxicity, cell-based
# [14] = tested on: unidentified influenza virus; assay: Antiviral activity against influenza virus; type: functional, organism-based
# [15] = tested on: Human immunodeficiency virus; assay: Antiviral activity against Human immunodeficiency virus; type: functional, organism-based; details: Human immunodeficiency virus 1
# [16] = tested on: Vesicular stomatitis virus; assay: Antiviral activity against Vesicular stomatitis virus; type: functional, organism-based
# Beta-secretase 1 = Beta-secretase 1 (Homo sapiens, UniProt P56817); assay: Inhibition of BACE1 (unknown origin)
# Vaccinia virus = assay: In vivo antiviral activity against Vaccinia virus infected in mouse assessed as reduction in virus severity of virus induced tail lesion at 250 mg/kg, po measured after 24 to 48 hrs relative to control; type: functional, Orthopoxvirus vaccinia; design: scale not given: the % may be the effect or the level left; details: time 24-48 hrs
# Bacillus subtilis = assay: Antibacterial activity against Bacillus subtilis ATCC 23857 by disc diffusion assay; type: functional
# Bel-7402 [17] = assay: Cytotoxicity against human Bel-7402 cells assessed as reduction in cell viability measured after 48 hrs by MTT assay; type: functional, cell-based; details: Bel-7402, 48 h
# HeLa [18] = assay: Cytotoxicity against human HeLa cells assessed as reduction in cell viability measured after 48 hrs by MTT assay; type: functional, cell-based
# A549 = assay: Cytotoxicity against human A549 cells assessed as reduction in cell viability measured after 48 hrs by MTT assay; type: functional, cell-based; details: A549, 48 h
# MG-63 [19] = assay: Cytotoxicity against human MG-63 cells assessed as reduction in cell viability measured after 48 hrs by MTT assay; type: functional, cell-based; details: MG-63, 48 h
# Bel-7402 [20] = assay: Cytotoxicity against human Bel-7402 cells incubated for 48 hrs by MTT assay; type: functional, cell-based; details: Bel-7402, 48 h
# HeLa [21] = assay: Cytotoxicity against human HeLa cells incubated for 48 hrs by MTT assay; type: functional, cell-based
# MG-63 [22] = assay: Cytotoxicity against human MG-63 cells incubated for 48 hrs by MTT assay; type: functional, cell-based; details: MG-63, 48 h
# SK-BR-3 = assay: Cytotoxicity against human SK-BR-3 cells incubated for 48 hrs by MTT assay; type: functional, cell-based; details: SK-BR-3, 48 h
# [23] = Activation of AMPK in rat L6 cells assessed as increase in AMPK phosphorylation; type: cell-based
# Chain of Glucocorticoid receptor (Homo sapiens) (P04150 whole entry): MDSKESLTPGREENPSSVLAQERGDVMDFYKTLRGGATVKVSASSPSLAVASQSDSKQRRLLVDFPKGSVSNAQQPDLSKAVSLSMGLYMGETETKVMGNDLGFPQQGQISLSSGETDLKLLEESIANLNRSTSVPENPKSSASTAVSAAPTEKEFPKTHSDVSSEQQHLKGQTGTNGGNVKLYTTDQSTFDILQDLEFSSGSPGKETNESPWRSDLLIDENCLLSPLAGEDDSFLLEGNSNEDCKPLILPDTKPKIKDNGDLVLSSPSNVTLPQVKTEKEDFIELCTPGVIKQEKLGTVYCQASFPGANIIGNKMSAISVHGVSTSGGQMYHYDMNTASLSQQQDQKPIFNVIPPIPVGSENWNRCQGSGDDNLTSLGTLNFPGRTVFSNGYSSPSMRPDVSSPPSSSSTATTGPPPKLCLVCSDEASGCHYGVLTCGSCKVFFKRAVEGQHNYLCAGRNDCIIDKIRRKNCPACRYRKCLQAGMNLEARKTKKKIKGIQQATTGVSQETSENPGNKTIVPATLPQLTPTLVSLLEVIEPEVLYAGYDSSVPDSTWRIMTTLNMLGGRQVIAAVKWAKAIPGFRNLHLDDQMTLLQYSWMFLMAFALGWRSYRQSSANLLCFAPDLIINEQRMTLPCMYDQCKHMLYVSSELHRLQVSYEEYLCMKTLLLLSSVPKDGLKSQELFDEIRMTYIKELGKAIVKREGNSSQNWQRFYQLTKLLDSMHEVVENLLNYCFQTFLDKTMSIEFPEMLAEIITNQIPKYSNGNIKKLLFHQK
# Chain of Beta-secretase 1 (P56817 whole entry): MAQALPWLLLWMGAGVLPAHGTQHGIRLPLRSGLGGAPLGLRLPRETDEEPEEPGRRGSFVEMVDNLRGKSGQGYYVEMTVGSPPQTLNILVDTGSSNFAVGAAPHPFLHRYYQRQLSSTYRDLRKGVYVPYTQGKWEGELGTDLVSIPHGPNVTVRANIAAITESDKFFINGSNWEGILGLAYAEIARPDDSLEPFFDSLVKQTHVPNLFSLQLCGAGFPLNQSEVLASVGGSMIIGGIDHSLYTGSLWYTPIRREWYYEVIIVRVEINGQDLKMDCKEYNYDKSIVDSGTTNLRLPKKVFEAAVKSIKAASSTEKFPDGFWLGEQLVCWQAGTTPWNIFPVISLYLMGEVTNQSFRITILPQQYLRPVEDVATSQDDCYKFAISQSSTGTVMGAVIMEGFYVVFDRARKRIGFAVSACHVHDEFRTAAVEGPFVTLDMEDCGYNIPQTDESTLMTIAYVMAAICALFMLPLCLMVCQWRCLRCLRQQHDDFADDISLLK
structure (smiles),measurement,setting,value
Cc1cc2nc3cc(C)c(N)cc3[n+](-c3ccccc3)c2cc1N,Kis,[1],453 µM
c1ccc(C2c3c(ccc4ccccc34)Oc3ccc4ccccc4c32)cc1,Activity,[2],31.1%
same,Activity,[3],63.5%
CN(C)CCCNC(=O)c1cc(C(C)(C)C)cc2c1Oc1c(C(=O)NCCCN(C)C)cc(C(C)(C)C)cc1C2(C)C,EC50,Trypanosoma brucei,0.02 µM
same,EC50,Trypanosoma cruzi,0.48 µM
same,EC50,Leishmania donovani,0.55 µM
CN(C)CCCNCC1c2ccccc2Oc2ccccc21,IC50,Plasmodium falciparum [4],0.78 µM
same,IC50,CHO,331.1 µM
CNC(=O)c1ccc2c3c(ccc2c1)Oc1ccc2cc(C(=O)NC)ccc2c1C3c1ccc(Cl)cc1,IC50,NB-4,0.76 µM
COC(=O)c1cc2ccc(OC)c3c2c(c1C(=O)OC)-c1cc(OC)c(OC)cc1O3,IC50,HepG2,> 100 µM
same,IC50,SW480,> 100 µM
CCOc1ccc(N2C(=O)C3(c4ccccc4Oc4ccccc43)C23c2ccccc2-c2ccccc23)cc1,IC50,Plasmodium falciparum [5],5 µM
O=C1OC(=O)c2c1cc1ccc(O)c3c1c2-c1cc(O)c(O)cc1O3,IC50,HepG2,> 100 µM
same,IC50,SW480,> 100 µM
CC/C(=C1\c2ccccc2Oc2cc(OCCN3CCCC3)ccc21)c1ccccc1,IC50,MCF7,12.4 µM
same,IC50,MDA-MB-231,25.4 µM
O=C(OCCc1ccccc1)c1cc2ccc(O)c3c2c(c1C(=O)OCCc1ccccc1)-c1cc(O)c(O)cc1O3,IC50,HepG2,4.76 µM
same,IC50,SW480,2.57 µM
same,Activity,[6],3.6%
COc1ccc(C2c3c(ccc4ccccc34)Oc3ccc4ccccc4c32)cc1OC,Activity,[2],52.6%
same,Activity,[3],70.8%
COc1cc2c(cc1OC)-c1c(C(=O)OCCc3ccccc3)c(C(=O)OCCc3ccccc3)cc3ccc(OC)c(c13)O2,IC50,HepG2,> 100 µM
same,IC50,SW480,> 100 µM
Cc1c(C)c2c(c(C)c1O)CCC(C)(CCCC(C)CCCC(C)CCCC(C)C)O2 (racemic),Activity,[6],61.1%
Cc1cc(C(C)(C)C)c(O)c(C(C)(C)C)c1,Activity,[6],3.6%
O=C(O)c1c(Cl)c(Cl)c(Cl)c(Cl)c1-c1c2cc(I)c(=O)c(I)c-2oc2c(I)c(O)c(I)cc12 [ROSE BENGAL SODIUM],IC50,[7],45 µM
same,IC50,[8],73 µM
same,IC50,[9],75 µM
same,IC50,[10],51 µM
same,IC50,[11],73 µM
same,IC50,[12],75 µM
same,IC50,[13],136 µM
same,IC50,[14],0.3 µM
same,IC50,[15],0.05 µM
same,IC50,[16],0.008 µM
CC(C)(C)C(=O)N[C@H]1CC[C@@H]2Oc3ccc(-c4cncc(F)c4)cc3C3(CSC(N)=N3)[C@H]2C1 (some centres undefined),IC50,Beta-secretase 1,0.0011 µM
CN(C)CC(=O)c1ccc2c(c1)Cc1cc(C(=O)CN(C)C)ccc1O2,Activity,Vaccinia virus,31%
Fc1ccc(C2c3cc(-c4ccccc4)ccc3Oc3ccc4ccccc4c32)cc1 (centres undefined),IC50,NB-4,> 50 µM
Cc1ccc(O)c(COCc2cc(C)cc3c2Oc2ccc(C)cc2C3)c1,MIC,Bacillus subtilis,36.1 µg/mL
CC(=O)C1C(=O)C[C@@H]2CC[C@@]13c1c(cccc12)Oc1ccc2ccccc2c13 (some centres undefined),IC50,Bel-7402 [17],17.1 µM
same,IC50,HeLa [18],30.1 µM
same,IC50,A549,54.9 µM
same,IC50,MG-63 [19],82.5 µM
O=[As][As+](=O)[O-] (centres undefined) [ARSENIC TRIOXIDE],IC50,NB-4,5.31 µM
c1ccc(-c2ccc3c(c2)C(c2ccccc2)c2c(ccc4ccccc24)O3)cc1 (centres undefined),IC50,NB-4,> 50 µM
COC12C(=O)C=Cc3cc(Br)cc(c31)Oc1ccc3cc(Br)ccc3c12 (centres undefined),IC50,Bel-7402 [20],42.3 µM
same,IC50,HeLa [21],28.1 µM
same,IC50,MG-63 [22],39.2 µM
same,IC50,SK-BR-3,14.3 µM
O=C(N[C@H](CO)[C@H](O)c1ccc([N+](=O)[O-])cc1)C(Cl)Cl [CHLORAMPHENICOL],MIC,Bacillus subtilis,68.7 µg/mL
CN(C)C(=N)NC(=N)N [METFORMIN],EC50,[23],10000 µM
N#Cc1cccc(NC(=O)NC(NC(=O)C2c3ccccc3Oc3ccccc32)C(Cl)(Cl)Cl)c1 (centres undefined),EC50,[23],1.5 µM
COc1cc(C2c3c(ccc4ccccc34)Oc3ccc4ccccc4c32)ccc1O,Activity,[2],86.8%
same,Activity,[3],83.1%
O=C1C(CO)=Cc2cccc3c2C1(O)c1c(ccc2ccccc12)O3 (centres undefined),IC50,Bel-7402 [20],45.2 µM
same,IC50,HeLa [21],68.8 µM
same,IC50,MG-63 [22],54.8 µM
same,IC50,SK-BR-3,26.2 µM
COC(=O)[C@@]1(O)C[C@@H](OC(=O)c2c(C(=O)O[C@@H]3C[C@](O)(C(=O)OC)C[C@@H]4OC(C)(C)O[C@H]43)cc3ccc(O)c4c3c2-c2cc(O)c(O)cc2O4)[C@@H]2OC(C)(C)O[C@@H]2C1,Activity,[6],28.1%
Clc1ccc(C2c3cc(-c4ccccc4)ccc3Oc3ccc4ccccc4c32)cc1 (centres undefined),IC50,NB-4,> 50 µM
O=C(Nc1cccc([N+](=O)[O-])c1)NC(NC(=O)C1c2ccccc2Oc2ccccc21)C(Cl)(Cl)Cl (centres undefined),EC50,[23],1.5 µM
COCc1cc(C)cc2c1Oc1ccc(C)cc1C2,MIC,Bacillus subtilis,25.4 µg/mL
COC(=O)c1cc2ccc(OC(C)=O)c3c2c(c1C(=O)OC)-c1cc(OC(C)=O)c(OC(C)=O)cc1O3,IC50,HepG2,28.6 µM
same,IC50,SW480,25.5 µM
Oc1ccc(C2c3c(ccc4ccccc34)Oc3ccc4ccccc4c32)cc1,Activity,[2],53.1%
same,Activity,[3],73.2%
O=C(O)CCc1c2ccc(=O)cc-2oc2cc(O)ccc12,Kis,[1],27 µM
CNC(=O)c1ccc2c3c(ccc2c1)Oc1ccc2cc(C(=O)NC)ccc2c1C3c1ccc(F)cc1,IC50,NB-4,0.52 µM
CC(=O)Oc1cc2c(cc1OC(C)=O)-c1c(C(=O)OCCc3ccccc3)c(C(=O)OCCc3ccccc3)cc3ccc(OC(C)=O)c(c13)O2,IC50,HepG2,26.7 µM
same,IC50,SW480,3.21 µM
COC(=O)c1cc2ccc(O)c3c2c(c1C(=O)OC)-c1cc(O)c(O)cc1O3,IC50,HepG2,34.8 µM
same,IC50,SW480,32.9 µM
CCOC12C(=O)C(CO)=Cc3cc(CO)cc(c31)Oc1c(CO)cc3cc(CO)ccc3c12 (centres undefined),IC50,Bel-7402 [20],10.1 µM
same,IC50,HeLa [21],9.4 µM
same,IC50,MG-63 [22],25.2 µM
same,IC50,SK-BR-3,6.2 µM
COc1ccc(C2c3c(ccc4ccccc34)Oc3ccc4ccccc4c32)cc1,Activity,[2],47.1%
same,Activity,[3],67.5%
O=C(O)/C=C/c1ccc(O)c(O)c1,Activity,[6],58.6%
O=C1C=Cc2cccc3c2C1c1c(ccc2ccccc12)O3 (centres undefined),IC50,Bel-7402 [20],17.6 µM
same,IC50,HeLa [21],18.5 µM
same,IC50,MG-63 [22],20.1 µM
same,IC50,SK-BR-3,15.5 µM
Cc1ccc(C2c3cc(-c4ccccc4)ccc3Oc3ccc4ccccc4c32)cc1 (centres undefined),IC50,NB-4,> 50 µM

# From ChEMBL document CHEMBL5149963, “Xanthenes in Medicinal Chemistry - Synthetic strategies and biological activities” (Eur J Med Chem, 2021)
